Legend:
[1] = test system: BpXylA (xylose isomerase); experiment: Effect of metal ions on the activity of BpXylA; type: biochemical, Bacteroides plebeius; conditions: pre-incubation 4° C. 20 minutes; control: no metal ions added
Description: (§1) To investigate the optimal reaction conditions for BpXylA, the effects of optimal reaction temperature, pH, and metal ions were examined. The standard reaction conditions for BpXylA were set to a reaction with 1.09 U/ml BpXylA in 50 mM sodium phosphate (pH 7.0) buffer containing 10 mM D-xylose and 1 mM Mg^2+ at 50° C. for 10 minutes. The optimal reaction conditions for BpXylA described below were all determined by experiments under the standard reaction conditions.
(§2) First, in order to determine the optimal temperature conditions for BpXylA, the reaction was performed under standard reaction conditions at various temperature conditions. […] In order to determine the optimal pH of BpXylA, the reaction was performed while varying the pH using various buffer solutions.

[2] = test system: BpXylA (xylose isomerase); experiment: Effect of metal ions on the thermal stability of BpXylA; type: biochemical, Bacteroides plebeius; conditions: 1 mM metal ion; for Relative activity of BpXylA over time with metal ion: 50° C. (Mg^2+: 50° C. or higher), up to 90 minutes
Description: To investigate this, the culture was performed with each metal ion corresponding to a concentration of 1 mM together with the enzymes under various temperature conditions. As a result, as shown in [FIG. 4], higher thermal stability was found when the culture was performed with metal ions than when it was performed without metal ions. […] [(b) of FIG. 4 and (c) of FIG. 4].

[3] = target: EcPpk (polyphosphate kinase) (Escherichia coli, UniProt P0A7B1); conditions: pre-incubation 4° C. 20 minutes; control: no metal ions added
Description: As a result, the highest activity was found at 50° C., as shown in [(a) of FIG. 10]. […] As a result, the highest activity was found in a sodium phosphate buffer (pH 7.0), as shown in [(b) of FIG. 10]. […] The decrease in enzyme activity was calculated by calculating the decrease in relative activity due to heat treatment, using the activity of the enzyme that was not allowed to stand as a control. […] [(d) of FIG. 10].

[4] = target: T1, EcAraB (L-ribulokinase) (Escherichia coli, UniProt P08204); experiment: Effect of metal ions on the activity of EcAraB; type: biochemical; design: His tag (inferred: pET21a, NotI reverse primer without stop codon, HisTrap purification) (C); T7 tag and vector leader of pET21a (own knowledge: in-frame insertion at SacI keeps the vector's N-terminal leader) (N); made in house; host or cells: E. coli BL21 (DE3); conditions: pre-incubation 4° C. 20 minutes; control: no metal ions added
Description: To determine the optimal reaction conditions for EcAraB, the optimal reaction temperature, pH, metal ion effects, and thermal stability were examined. […] The amount (mg) of EcAraB that produces 1 μmol of D-ribulose-5-phosphate per minute was defined as one unit.
As a result, as shown in [(a) of FIG. 9], the highest activity was found at 50° C. In order to determine the optimal pH conditions for EcAraB, the reaction was performed while varying the pH using various buffer solutions. […] [(d) of FIG. 9].

[5] = test system: BpRpiB (D-ribose-5-phosphate isomerase); experiment: Effect of metal ions on the activity of BpRpiB; type: biochemical, Bacteroides plebeius; conditions: pre-incubation 4° C. 20 minutes; control: no metal ions added
Description: (§3) To determine the optimal reaction conditions for BpRpiB, the optimal reaction temperature, pH, metal ion effects, and thermal stability were examined. […] The amount (mg) of BpRpiB that produces 1 μmol of D-ribulose per minute was defined as one unit.
(§4) First, in order to determine the optimal temperature conditions for BpRpiB, the reaction was performed under standard reaction conditions at various temperature conditions. […] In order to investigate the optimal pH for the activity of BpRpiB, the reaction was performed by changing the pH using various buffer solutions. […] [(d) of FIG. 5].

[6] = test system: BpRpiB (D-ribose-5-phosphate isomerase); experiment: Substrate specificity of BpRpiB; type: biochemical, Bacteroides plebeius; conditions: substrate 2 mM, standard reaction conditions (50° C., 10 minutes)
Source text: as §3
BpRpiB used in the present invention is known to be an enzyme that converts the substrate D-ribulose-5-phosphate, which is originally a phosphorylated sugar, into D-ribose-5-phosphate. Therefore, in the present invention, in order to confirm the activity of BpRpiB for D-ribose and D-ribulose as well as D-ribulose-5-phosphate and D-ribose-5-phosphate, which are the original substrates of BpRpiB, the substrate specificity of BpRpiB for various aldo- and keto-sugars was examined [Table 2]. The experiment was performed using various aldo- and keto-sugars as substrates at a concentration of 2 mM under standard reaction conditions, and the relative activity against other substrates was expressed based on the activity against D-xylose. […] Therefore, in the present invention, in order to produce D-ribose from D-xylose, BpRpiB is sufficiently applicable as an enzyme that converts D-ribulose into D-ribose, which is the final reaction step of the multi-enzyme process.

[7] = test system: BpXylA (xylose isomerase); experiment: Substrate specificity of BpXylA; type: biochemical, Bacteroides plebeius; conditions: substrate 2 mM, standard reaction conditions (50 mM sodium phosphate pH 7.0, 1 mM Mg^2+, 50° C., 10 minutes); based on the activity for D-xylose
Description: as §1
In order to determine whether BpXylA used in the present invention is a suitable enzyme for producing D-ribose from D-xylose, the substrate specificity of BpXylA for various aldo- and keto-sugars was examined [Table 1]. The experiment was conducted using various aldo- and keto-sugars as substrates at a concentration of 2 mM under the standard reaction conditions, and the relative activity against other substrates was shown based on the activity for D-xylose. […] Therefore, BpXylA is sufficiently applicable for producing D-ribose from D-xylose in the present invention.

[8] = target: T1, EcAraB (L-ribulokinase); conditions: previous study; cited from earlier work
[9] = test system: BpXylA (xylose isomerase); experiment: Thermal stability of BpXylA; type: physicochemical, Bacteroides plebeius
[10] = test system: BpXylA (xylose isomerase); experiment: Optimal reaction temperature and pH of BpXylA; type: biochemical, Bacteroides plebeius
Description: as §1, §2

[11] = test system: BpRpiB (D-ribose-5-phosphate isomerase); experiment: Thermal stability of BpRpiB; type: physicochemical, Bacteroides plebeius
Description: as §3, §4

[12] = target: T2, AtDpe (ketose 3-epimerase) (Agrobacterium fabrum, UniProt A9CH28); conditions: 50° C. compared to 45° C.; previous study; cited from earlier work
T2 sequence (A9CH28 whole entry, looked up): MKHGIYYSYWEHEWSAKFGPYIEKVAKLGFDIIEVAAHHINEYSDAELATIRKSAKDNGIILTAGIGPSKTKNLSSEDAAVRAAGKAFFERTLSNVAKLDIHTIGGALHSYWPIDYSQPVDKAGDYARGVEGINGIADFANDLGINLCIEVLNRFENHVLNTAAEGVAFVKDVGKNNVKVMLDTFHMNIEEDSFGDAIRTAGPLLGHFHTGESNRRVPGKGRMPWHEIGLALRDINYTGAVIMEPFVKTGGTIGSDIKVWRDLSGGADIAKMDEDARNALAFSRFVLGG

Which results are given for `[Co+2]` [Co^2+]?
Effect of metal ion on enzyme activity [1]: significantly increased; Relative activity of BpXylA over time with metal ion [2]: stably maintained; Relative activity with metal ion added [3]: 176.14±24.10%; Relative activity with metal ion added [4]: 435.51±110.20%

With `[Cu+2]` [Cu^2+] as the molecule, how does the “Effect of metal ion on enzyme activity” value [5] read?
The value was “significantly inhibited”.

What does the source list for `O=C[C@@H](O)[C@H](O)[C@H](O)CO` [D-Arabinose]?
Relative activity (%) [6]: Not detected; Relative activity (%) [7]: Not detected

With `O=C(CO)[C@@H](O)[C@H](O)[C@H](O)CO` [D-Fructose] as the molecule, how does the “Relative activity (%)” value [6] read?
The value was “Not detected”.

And the “Relative activity (%)” value [7]?
The value was “Not detected”.

Which results are given for `O=C[C@H](O)[C@@H](O)[C@H](O)[C@H](O)CO` [D-Glucose]?
Relative activity (%) [6]: Not detected; Relative activity (%) [7]: Not detected

For `O=C[C@@H](O)[C@@H](O)[C@H](O)[C@H](O)CO` [D-Mannose], which “Relative activity (%)” value [6] is on record?
The value was “Not detected”.

And the “Relative activity (%)” value [7]?
The value was “Not detected”.

Which “Relative activity (%)” value [6] does the source give for `O=C[C@H](O)[C@H](O)[C@H](O)COP(=O)(O)O` [D-Ribose-5-phosphate] here?
The value was 933.9 ± 11.7%.

Which “Relative activity (%)” value [6] does the source give for `O=C[C@H](O)[C@H](O)[C@H](O)CO` [D-Ribose] here?
Its value is 79.1 ± 0.4%.

And the “Relative activity (%)” value [7]?
Its value is 33.2 ± 1.1%.

With `O=C(CO)[C@H](O)[C@H](O)COP(=O)(O)O` [D-Ribulose-5-phosphate] as the molecule, how does the “Relative activity (%)” value [6] read?
Its value is 924.4 ± 33.7%.

Which “Relative activity (%)” value [6] does the source give for `O=C(CO)[C@H](O)[C@H](O)CO` [D-Ribulose] here?
Its value is 100 ± 4.8%.

What about the “Relative activity (%)” value [7] of the same molecule?
Its value is 13.9 ± 13.8%.

Which “Relative activity (%)” value [6] does the source give for `O=C(CO)[C@@H](O)[C@@H](O)[C@H](O)CO` [D-Tagatose] here?
The value was “Not detected”.

What about the “Relative activity (%)” value [7] of the same molecule?
The value was “Not detected”.

With `O=C[C@H](O)[C@@H](O)[C@H](O)CO` [D-Xylose] as the molecule, how does the “Relative activity (%)” value [6] read?
Its value is “Not detected”.

And the “Relative activity (%)” value [7]?
Its value is 100 ± 2.2%.

For `O=C(CO)[C@@H](O)[C@H](O)CO` [D-Xylulose], which “Activity relative to the activity against D-ribulose” value [8] is on record?
The value was 2.44%.

What about the “Relative activity (%)” value [6] of the same molecule?
The value was “Not detected”.

And the “Relative activity (%)” value [7]?
Its value is 156.5 ± 2.2%.

Which “Relative activity (%)” value [6] does the source give for `O=C[C@H](O)[C@@H](O)[C@@H](O)CO` [L-Arabinose] here?
Its value is “Not detected”.

And the “Relative activity (%)” value [7]?
Its value is “Not detected”.

Which results are given for `O=C(CO)[C@@H](O)[C@H](O)[C@@H](O)CO` [L-Sorbose]?
Relative activity (%) [6]: Not detected; Relative activity (%) [7]: Not detected

With `[Mg+2]` [Mg^2+] as the molecule, how does the “Effect of metal ion on enzyme activity” value [1] read?
The value was “significantly increased”.

And the “Relative activity with metal ion added” value [1]?
Its value is 876.98±35.30%.

And the “Relative activity of BpXylA over time with metal ion” value [2]?
The value was “decreased over time”.

And the “Thermal stability of BpXylA with metal ion” value ([2]; versus without metal ions)?
The value was “thermal stability increased”.

What about the “Relative activity with metal ion added” value [3] of the same molecule?
Its value is 202.12±7.46%.

What about the “Relative activity with metal ion added” value [4] of the same molecule?
Its value is 614.62±42.14%.

For `[Mn+2]` [Mn^2+], which “Effect of metal ion on enzyme activity” value [1] is on record?
Its value is “significantly increased”.

What about the “Relative activity of BpXylA over time with metal ion” value [2] of the same molecule?
The value was “stably maintained”.

And the “Relative activity of BpXylA with metal ion” value ([2]; 60° C.)?
Its value is “stable”.

What about the “Relative activity with metal ion added” value [3] of the same molecule?
The value was 161.48±5.53%.

And the “Relative activity with metal ion added” value [4]?
The value was 286.47±21.62%.

Which “Effect of metal ion on enzyme activity” value [5] does the source give for `[Zn+2]` [Zn^2+] here?
Its value is “significantly inhibited”.

For “BpXylA: xylose isomerase derived from Bacteroides plebeius, SEQ ID NO: 1”, which “Enzyme activity after heat treatment” value ([9]; 40° C., up to 90 minutes) is on record?
The value was “did not significantly decrease”.

And the “Relative activity after heat treatment” value ([9]; 50° C. for 15 minutes, control: enzyme not allowed to stand)?
Its value is “about 29.29±1.43%”.

And the “Optimal pH” value ([10]; sodium phosphate buffer)?
The value was 7.0.

What about the “Optimal temperature for enzyme activity” value ([10]; standard reaction conditions, various temperatures) of the same molecule?
Its value is 50 °C.

B1: BpRpiB: D-ribose-5-phosphate isomerase derived from Bacteroides plebeius, SEQ ID NO: 5 (protein)
chain: MKTIGLASDHAGFELKQYVKKWLEAKGWEYKDFGTYTTDSCDYPDFAHPLALAVENGECYPGIAICGSGEGIGITLNKHQGIRAALCWIPEIAHLARQHNNANVLVMPGRFIDEAMADKIMTEFFTTDFEGGRHQARIDKIPVR
modifications: BpRpiB
With B1 as the molecule, how does the “Activity after heat treatment” value ([11]; 70° C.) read?
The value was “rapidly decreased”.

And the “Overall activity after heat treatment” value ([11]; up to 60° C.)?
The value was “stable”.

B2: AtDpe: ketose 3-epimerase derived from Agarobacterium tumefaciens, SEQ ID NO: 3 (protein)
chain: MKHGIYYSYWEHEWSAKFGPYIEKVAKLGFDIIEVAAHHINEYSDAELATIRKSAKDNGIILTAGIGPSKTKNLSSEDAAVRAAGKAFFERTLSNVAKLDIHTIGGALHSYWPIDYSQPVDKAGDYARGVEGINGIADFANDLGINLCIEVLNRFENHVLNTAAEGVAFVKDVGKNNVKVMLDTFHMNIEEDSFGDAIRTAGPLLGHFHTGESNRRVPGKGRMPWHEIGLALRDINYTGAVIMEPFVKTGGTIGSDIKVWRDLSGGADIAKMDEDARNALAFSRFVLGG
modifications: AtDpe
For B2, which Thermal stability [12] is on record?
Its Thermal stability is “decreased rapidly”.
